Reference: ChEMBL document CHEMBL5042504 (J Med Chem, 2022)
One block for each molecule: values may come before it. Calls of active or inactive are those of the source. No cut-off for these calls is given here.

What was measured:
[1] = molecular target: T1, Protein deacetylase HDAC6 (Homo sapiens, UniProt Q9UBN7); assay: Inhibition of human recombinant HDAC6 using Boc-Lys(acetyl)-AMC substrate incubated for 2 hrs by fluorescence based assay
T1 sequence (Q9UBN7 whole entry): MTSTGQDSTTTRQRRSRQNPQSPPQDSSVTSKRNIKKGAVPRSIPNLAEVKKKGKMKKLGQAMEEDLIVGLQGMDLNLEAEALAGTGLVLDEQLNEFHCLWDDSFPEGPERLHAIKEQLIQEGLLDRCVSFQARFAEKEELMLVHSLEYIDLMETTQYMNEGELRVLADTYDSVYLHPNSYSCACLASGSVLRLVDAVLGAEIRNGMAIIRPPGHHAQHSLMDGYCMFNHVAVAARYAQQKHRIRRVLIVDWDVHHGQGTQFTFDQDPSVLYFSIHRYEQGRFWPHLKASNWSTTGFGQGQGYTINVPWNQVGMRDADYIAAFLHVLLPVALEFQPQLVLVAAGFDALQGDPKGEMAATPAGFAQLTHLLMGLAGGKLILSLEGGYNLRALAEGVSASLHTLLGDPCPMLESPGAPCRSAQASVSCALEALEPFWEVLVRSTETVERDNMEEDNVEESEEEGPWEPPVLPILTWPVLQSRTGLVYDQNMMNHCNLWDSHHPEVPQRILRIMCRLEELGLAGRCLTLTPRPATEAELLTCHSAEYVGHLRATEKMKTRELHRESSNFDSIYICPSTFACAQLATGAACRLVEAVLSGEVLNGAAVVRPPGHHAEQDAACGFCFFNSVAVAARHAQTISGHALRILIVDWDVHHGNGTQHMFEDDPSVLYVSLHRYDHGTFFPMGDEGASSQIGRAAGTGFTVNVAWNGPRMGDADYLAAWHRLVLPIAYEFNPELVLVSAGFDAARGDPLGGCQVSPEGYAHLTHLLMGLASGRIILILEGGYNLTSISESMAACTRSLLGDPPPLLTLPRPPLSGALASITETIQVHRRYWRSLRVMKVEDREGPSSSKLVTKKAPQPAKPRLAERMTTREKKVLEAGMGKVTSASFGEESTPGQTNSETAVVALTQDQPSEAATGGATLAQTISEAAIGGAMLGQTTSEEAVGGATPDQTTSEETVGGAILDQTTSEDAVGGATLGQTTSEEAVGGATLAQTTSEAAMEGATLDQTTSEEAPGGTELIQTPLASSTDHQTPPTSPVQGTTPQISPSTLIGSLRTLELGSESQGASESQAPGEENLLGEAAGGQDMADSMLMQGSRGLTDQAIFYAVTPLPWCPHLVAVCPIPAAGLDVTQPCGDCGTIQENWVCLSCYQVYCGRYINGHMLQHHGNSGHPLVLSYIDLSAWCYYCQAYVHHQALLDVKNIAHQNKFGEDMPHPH

[2] = molecular target: Histone deacetylase 3 (Homo sapiens, UniProt O15379); assay: Inhibition of human recombinant HDAC3 using Boc-Lys(acetyl)-AMC substrate incubated for 2 hrs by fluorescence based assay
[3] = molecular target: Histone deacetylase 2 (Homo sapiens, UniProt Q92769); assay: Inhibition of human recombinant HDAC2 using Boc-Lys(acetyl)-AMC substrate incubated for 2 hrs by fluorescence based assay
[4] = system: MV4-11; assay: cells; details: Homo sapiens, MV4-11, 48 h
Description: Antiproliferative activity against human MV4-11 AML cells assessed as cell viability measured after 48 hrs by multiplate reader method

[5] = molecular target: Histone deacetylase 1 (Homo sapiens, UniProt Q13547); assay: Inhibition of human recombinant HDAC1 using Boc-Lys(acetyl)-AMC substrate incubated for 2 hrs by fluorescence based assay
[6] = Drug uptake in BALB/c mouse xenografted with human AML MV4-11 cells assessed as tumor tissue at 4 mg/kg ip measured after 0.5 to 6 hrs by LC-MS/MS; type: ADME, organism-based; details: in vivo, time 0.5-6 hrs
[7] = Drug distribution in tumor of BALB/c mouse xenografted with human MV4-11 cells assessed as measured after 2 hrs; type: ADME; details: read-out: Ct
[8] = Drug uptake in BALB/c mouse xenografted with human AML MV4-11 cells assessed as tumor tissue at 4mg/kg, po measured after 0.5 to 6 hrs by LC-MS/MS; type: ADME, organism-based; details: in vivo, time 0.5-6 hrs
[9] = Drug distribution in BALB/c mouse lung measured at 4 mg/kg, po or ip after 2 to 8 hrs after 0.5 hrs; type: ADME, organism-based; details: in vivo, time 2-8 hrs
[10] = Drug distribution in BALB/c mouse lung measured at 4 mg/kg, po or ip after 0.5 hrs after 0.5 hrs; type: ADME, organism-based; details: in vivo
[11] = system: MV4-11; assay: Antitumor activity against human MV4-11 cells xenografted in BALB/c mouse assessed as tumor growth inhibition at 2 to 4 mg/kg, po administered for 24 days; type: functional; details: dose 2-4 mg/kg, time 24.0 day
[12] = Drug distribution in BALB/c mouse spleen measured at 4 mg/kg, po or ip after 0.5 hrs; type: ADME, organism-based; details: in vivo
[13] = Drug distribution in BALB/c mouse liver measured at 4 mg/kg, po or ip after 2 to 8 hrs after 0.5 hrs; type: ADME, organism-based; details: in vivo, time 2-8 hrs
[14] = Drug distribution in BALB/c mouse kidney measured at 4 mg/kg, po or ip after 2 to 8 hrs after 0.5 hrs; type: ADME, organism-based; details: in vivo, time 2-8 hrs
[15] = Drug distribution in BALB/c mouse brain measured at 4 mg/kg, po or ip after 0.5 hrs after 0.5 hrs; type: ADME, organism-based; details: in vivo
[16] = Plasma concentration in BALB/c mouse xenografted with human AML MV4-11 cells at 4 mg/kg, po; type: ADME, organism-based; details: in vivo
[17] = Drug distribution in BALB/c mouse heart measured at 4 mg/kg, po or ip after 2 to 8 hrs after 0.5 hrs; type: ADME, organism-based; details: in vivo, time 2-8 hrs
[18] = Drug distribution in BALB/c mouse heart measured at 4 mg/kg, po or ip after 0.5 hrs after 0.5 hrs; type: ADME, organism-based; details: in vivo
[19] = Drug distribution in BALB/c mouse gut measured at 4 mg/kg, po or ip after 2 to 8 hrs after 0.5 hrs; type: ADME, organism-based; details: in vivo, time 2-8 hrs
[20] = Drug distribution in BALB/c mouse gut measured at 4 mg/kg, po or ip after 0.5 hrs after 0.5 hrs; type: ADME, organism-based; details: in vivo
[21] = Drug distribution in BALB/c mouse spleen measured at 4 mg/kg, po or ip after 2 to 8 hrs after 0.5 hrs; type: ADME, organism-based; details: in vivo, time 2-8 hrs
[22] = Plasma concentration in BALB/c mouse xenografted with human AML MV4-11 cells at 4 mg/kg, ip; type: ADME, organism-based; details: in vivo
[23] = Drug distribution in tumor of BALB/c mouse xenografted with human MV4-11 cells assessed as measured after 0.5 hrs; type: ADME; details: read-out: Ct
[24] = system: MV4-11; assay: Antitumor activity against human MV4-11 cells xenografted in BALB/c mouse assessed as tumor growth inhibition at 4 mg/kg, ip administered for 24 days; type: functional, organism-based; details: time 24.0 day
[25] = Drug distribution in BALB/c mouse liver measured at 4 mg/kg, po or ip after 0.5 hrs after 0.5 hrs; type: ADME, organism-based; details: in vivo
[26] = Drug distribution in BALB/c mouse brain measured at 4 mg/kg, po or ip after 2 to 8 hrs after 0.5 hrs; type: ADME, organism-based; details: in vivo, time 2-8 hrs
[27] = system: MV4-11; assay: Antitumor activity against human MV4-11 cells xenografted in BALB/c mouse assessed as tumor growth inhibition at 4 mg/kg, po administered for 24 days; type: functional, organism-based; details: time 24.0 day
[28] = Drug distribution in tumor of BALB/c mouse xenografted with human MV4-11 cells assessed as measured after 8 hrs; type: ADME; details: read-out: Ct
[29] = Drug distribution in BALB/c mouse kidney measured at 4 mg/kg, po or ip after 0.5 hrs after 0.5 hrs; type: ADME, organism-based; details: in vivo

Sequence of Histone deacetylase 1 (Q13547 whole entry): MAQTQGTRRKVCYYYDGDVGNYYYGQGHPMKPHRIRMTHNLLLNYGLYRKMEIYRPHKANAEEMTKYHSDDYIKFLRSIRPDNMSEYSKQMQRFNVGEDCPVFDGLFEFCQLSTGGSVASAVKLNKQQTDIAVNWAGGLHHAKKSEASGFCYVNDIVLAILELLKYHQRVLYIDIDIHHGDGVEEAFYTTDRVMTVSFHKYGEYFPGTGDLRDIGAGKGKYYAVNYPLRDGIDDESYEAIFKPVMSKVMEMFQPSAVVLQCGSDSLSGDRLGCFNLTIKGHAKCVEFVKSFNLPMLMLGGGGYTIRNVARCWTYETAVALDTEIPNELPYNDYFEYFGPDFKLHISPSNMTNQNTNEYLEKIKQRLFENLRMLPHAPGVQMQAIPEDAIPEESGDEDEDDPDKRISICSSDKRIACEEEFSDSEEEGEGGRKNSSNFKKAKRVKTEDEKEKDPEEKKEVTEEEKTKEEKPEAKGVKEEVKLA
Sequence of Histone deacetylase 3 (O15379 whole entry): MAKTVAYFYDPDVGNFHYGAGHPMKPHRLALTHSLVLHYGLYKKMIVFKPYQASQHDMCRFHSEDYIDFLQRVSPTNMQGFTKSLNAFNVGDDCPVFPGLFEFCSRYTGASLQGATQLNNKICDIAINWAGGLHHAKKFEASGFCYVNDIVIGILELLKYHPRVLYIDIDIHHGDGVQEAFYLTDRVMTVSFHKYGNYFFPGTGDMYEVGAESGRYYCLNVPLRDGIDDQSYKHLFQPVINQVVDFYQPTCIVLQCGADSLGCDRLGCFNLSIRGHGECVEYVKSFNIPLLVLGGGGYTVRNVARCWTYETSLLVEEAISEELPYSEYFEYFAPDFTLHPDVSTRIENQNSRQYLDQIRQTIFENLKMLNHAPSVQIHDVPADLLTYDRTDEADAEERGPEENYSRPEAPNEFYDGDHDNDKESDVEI
Sequence of Histone deacetylase 2 (Q92769 whole entry): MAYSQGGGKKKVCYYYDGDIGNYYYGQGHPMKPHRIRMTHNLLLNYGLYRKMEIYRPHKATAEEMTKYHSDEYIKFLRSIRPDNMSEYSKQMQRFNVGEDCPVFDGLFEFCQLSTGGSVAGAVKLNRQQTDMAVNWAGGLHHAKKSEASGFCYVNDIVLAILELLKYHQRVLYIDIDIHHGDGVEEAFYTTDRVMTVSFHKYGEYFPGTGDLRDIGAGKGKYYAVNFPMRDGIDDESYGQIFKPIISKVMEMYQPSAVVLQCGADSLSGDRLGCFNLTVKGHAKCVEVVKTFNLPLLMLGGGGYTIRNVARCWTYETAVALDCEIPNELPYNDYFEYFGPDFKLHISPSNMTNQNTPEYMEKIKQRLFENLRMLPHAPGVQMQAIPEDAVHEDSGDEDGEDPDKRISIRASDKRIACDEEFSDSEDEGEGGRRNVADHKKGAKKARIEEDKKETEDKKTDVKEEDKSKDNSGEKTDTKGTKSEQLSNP

IC50 [1]: > 10000 nM
IC50 [2]: 0.51 nM
IC50 [3]: 16.1 nM
IC50 [4]: 40 nM
IC50 [5]: 3.91 nM
SMILES: CCCNNC(=O)c1ccc(CNC(=O)c2cc3cc(O)ccc3o2)cc1

IC50 [1]: > 10000 nM
IC50 [2]: 1.61 nM
IC50 [3]: 52.7 nM
IC50 [4]: 91.2 nM
IC50 [5]: 12.9 nM
SMILES: CCCNNC(=O)c1ccc(CNC(=O)c2cc3cc(F)ccc3[nH]2)cc1

IC50 [1]: > 10000 nM
IC50 [2]: 0.62 nM
IC50 [3]: 23.7 nM
IC50 [4]: 159 nM
IC50 [5]: 7.85 nM
SMILES: CCCNNC(=O)c1ccc(CNC(=O)c2cc3cc(Br)ccc3o2)cc1

IC50 [1]: > 10000 nM
IC50 [2]: 0.62 nM
IC50 [3]: 28.1 nM
IC50 [4]: 248 nM
IC50 [5]: 8.91 nM
SMILES: CCCNNC(=O)c1ccc(CNC(=O)c2cc3cc(Cl)ccc3o2)cc1

IC50 [1]: > 10000 nM
IC50 [2]: 0.28 nM
IC50 [3]: 26.1 nM
IC50 [4]: 52.1 nM
IC50 [5]: 7.4 nM
SMILES: CCCNNC(=O)c1ccc(CNC(=O)c2cc3cc(OC)ccc3o2)cc1

IC50 [1]: > 10000 nM
IC50 [2]: 0.58 nM
IC50 [3]: 16.4 nM
IC50 [4]: 37.5 nM
IC50 [5]: 4.66 nM
SMILES: CCCNNC(=O)c1ccc(CNC(=O)c2cc3cc(OC)ccc3[nH]2)cc1

Drug uptake [6]: Active
concentration at 2 h [7]: 151 ng/g
Drug uptake [8]: Active
Drug uptake [9]: Active
Drug uptake [10]: Active
Drug uptake [12]: Active
Drug uptake [13]: Active
Drug uptake [14]: Active
Drug uptake [15]: Active
Drug uptake [16]: Active
Drug uptake [17]: Active
Drug uptake [18]: Active
Drug uptake [19]: Active
Drug uptake [20]: Active
Drug uptake [21]: Active
Drug uptake [22]: Active
concentration at 0.5 h [23]: 82.4 ng/g
Drug uptake [25]: Active
Drug uptake [26]: Active
concentration at 8 h [28]: 108 ng/g
Drug uptake [29]: Active
SMILES: Cc1[nH]c2ccccc2c1CCNCc1ccc(/C=C/C(=O)NO)cc1 [PANOBINOSTAT]
TGI [11]: inactive
Activity [24]: Active
Activity [27]: Active

IC50 [1]: > 10000 nM
IC50 [2]: 2.03 nM
IC50 [3]: 41.4 nM
IC50 [4]: 59.7 nM
IC50 [5]: 16.2 nM
SMILES: CCCNNC(=O)c1ccc(CNC(=O)c2ccc3cnccc3n2)cc1

IC50 [1]: > 10000 nM
IC50 [2]: 0.83 nM
IC50 [3]: 27.9 nM
IC50 [4]: 56.5 nM
IC50 [5]: 8.22 nM
SMILES: CCCNNC(=O)c1ccc(CNC(=O)c2cc3cc(F)ccc3o2)cc1

IC50 [1]: > 10000 nM
IC50 [2]: 0.38 nM
IC50 [3]: 15.1 nM
IC50 [5]: 3.52 nM
SMILES: CCCNNC(=O)c1ccc(CNC(=O)c2cc3ccccc3o2)cc1

IC50 [1]: > 10000 nM
IC50 [2]: 1.31 nM
IC50 [3]: 42 nM
IC50 [4]: 43.6 nM
IC50 [5]: 9.73 nM
SMILES: CCCNNC(=O)c1ccc(CNC(=O)c2nc3ccccc3s2)cc1

IC50 [1]: > 10000 nM
IC50 [2]: 0.9 nM
IC50 [3]: 57.3 nM
IC50 [4]: 57.8 nM
IC50 [5]: 10.7 nM
SMILES: CCCNNC(=O)c1ccc(CNC(=O)c2ccc3ccccc3n2)cc1
